Assay results as given in patent US10816493B2, “Electrical measurement method, electrical measurement device, and blood condition analysis system” (SONY CORPORATION, priority 2015, dated 2020).

Test system: blood coagulation
Assay: Permittivity measurement over time of blood samples with calcium chloride added (coagulation start-indicating parameter)
Type: cell-based
Description: Experimental Example 2 was performed to determine whether and how the results of measurement of an electrical characteristic differ between a case using a compound having an inhibitory effect on blood sedimentation and having no influence on the electrical characteristic parameter used for analysis and a case using a compound having an influence on the electrical characteristic parameter. In this experimental example, permittivity was used as an example of the electrical characteristic. In addition, a coagulation start-indicating parameter for use in blood coagulation analysis was focused on as an example of the electrical characteristic parameter for use in analysis. Furthermore, in Experimental Example 2, measurement was performed on blood samples containing citric acid added as an anticoagulant with calcium chloride added as a blood coagulation […].
Carboxymethyl dextran as an example of the blood sedimentation inhibitor was dissolved at a concentration of 10% w/v in PBS. The carboxymethyl dextran-containing PBS solution was added in an amount of 10% to a whole blood sample with a high blood sedimentation rate, so that a sample of Example 3 was obtained.
A control sample was prepared by adding a blood sedimentation inhibitor-free PBS in an amount of 10% to the same whole blood sample as in Example 3.
Betaine was dissolved at a concentration of 10% w/v in PBS. The resulting blood sedimentation inhibitor-containing PBS solution was added in an amount of 10% to a blood sample with sedimentation abnormalities, prepared by a method similar to that in Experimental Example 1, so that a sample of Comparative Example 3 was obtained.
A control sample was prepared by adding a blood sedimentation inhibitor-free PBS in an amount of 10% to a blood sample with sedimentation abnormalities, prepared by a method similar to that in Experimental Example 1.
The permittivity of 180 μL of each of the samples of Example 3, Control for Example, Comparative Example 3, and Control for Comparative Example, prepared as described above, was measured at a frequency of 1 MHz over time.

SMILES: C[N+](C)(C)CC(=O)O [Comparative Example 3, Betaine]
- analysis of blood coagulation start time using a parameter indicating the time at which coagulation started (10% w/v in PBS added in an amount of 10%, citric acid plus calcium chloride, permittivity at 1 MHz): impossible to extract any parameter indicating the coagulation start time
- signal behavior compared with the control sample (10% w/v in PBS added in an amount of 10%, citric acid plus calcium chloride, permittivity at 1 MHz, FIGS. 6 and 7): completely different from that of the control sample
- adverse effect on the analysis (usability as blood sedimentation inhibitor) (blood coagulation analysis based on permittivity): has an adverse effect on the analysis
- inhibitory effect on blood sedimentation (in words) (suggested from results of Experimental Example 2): have an inhibitory effect on blood sedimentation
